From patent publication US6630496B1, “Inhibitors of phospholipase enzymes” (Genetics Institute LLC, priority 1996, dated 2003) come the findings set out here.

In test [1] the target is T1, cPLA2 (Homo sapiens, UniProt P47712).
T1 sequence (P47712 1-749): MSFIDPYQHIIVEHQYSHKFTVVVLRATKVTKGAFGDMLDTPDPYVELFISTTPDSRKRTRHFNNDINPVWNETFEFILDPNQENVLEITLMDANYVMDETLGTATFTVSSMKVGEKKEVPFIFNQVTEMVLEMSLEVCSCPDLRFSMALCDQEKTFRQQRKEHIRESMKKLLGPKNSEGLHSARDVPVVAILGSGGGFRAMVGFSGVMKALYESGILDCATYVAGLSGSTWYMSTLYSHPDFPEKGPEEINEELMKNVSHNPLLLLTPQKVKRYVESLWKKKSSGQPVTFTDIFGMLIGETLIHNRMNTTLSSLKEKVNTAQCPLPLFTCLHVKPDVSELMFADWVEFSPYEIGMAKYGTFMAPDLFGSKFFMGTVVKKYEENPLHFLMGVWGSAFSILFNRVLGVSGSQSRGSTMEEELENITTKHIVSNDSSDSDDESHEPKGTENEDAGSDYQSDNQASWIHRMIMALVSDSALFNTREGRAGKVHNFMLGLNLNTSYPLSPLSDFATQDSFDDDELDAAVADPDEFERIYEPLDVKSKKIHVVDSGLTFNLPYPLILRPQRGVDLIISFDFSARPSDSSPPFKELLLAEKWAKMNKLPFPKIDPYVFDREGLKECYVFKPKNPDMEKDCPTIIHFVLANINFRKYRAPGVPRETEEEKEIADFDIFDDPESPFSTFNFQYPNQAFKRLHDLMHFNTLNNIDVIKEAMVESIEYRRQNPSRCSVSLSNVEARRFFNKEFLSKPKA
The test is described as follows: Soluble substrate assay (LysoPC). Format: biochemical. The protocol:
(b) Soluble Substrate Assay (LysoPC)
The lipid was resuspended by vortexing 80 mM Hepes pH 7.5, 1 mM EDTA (1.2×final concentration). A typical assay consisted of lipid suspension (85 μl) to which was added consecutively the inhibitor (5 μl in DMSO) and cPLA2, 200 ng in 80 mM Hepes pH 7.5, 2 mM DTT and […]. This assay was conducted by either the manual assay or automated assay protocol described below.

Test [2] deals with T1, cPLA2. Description: Coumarine assay (7-hydroxycoumarinyl 6-heptenoate hydrolysis). It is filed as biochemical. The procedure:
7-hydroxycoumarinyl 6-heptenoate was used as a monomeric substrate for cPLA2 as reported previously (Huang, Z. et al., 1994, Analytical Biochemistry 222, 110-115). Inhibitors were mixed with 200 μL assay buffer (80 mM Hepes, pH 7.5, 1 mM EDTA) containing 60 μM 7-hydroxycoumarinyl 6-heptenoate. The reaction was initiated by adding 4 μg cPLA2 in 50 μL assay buffer. Hydrolysis of the 7-hydroxycoumarinyl 6-heptenoate ester was monitored in a fluorometer by exciting at 360 nm and monitoring emission at 460 nm. Enzyme activity is proportional to the increasein emission at 460 nm per minute. In the presence of a cPLA2 inhibitor, the rate of increase is less.

The mark [3] stands for this setting: NA = inhibitory activity not detected, read-out: IC50 (μM) Lyso PC.
Where [4] appears, read: 60 μM 7-hydroxycoumarinyl 6-heptenoate, read-out: IC50 (μM) Coumarine.

What is called IC50 is the point on the concentration scale where inhibition reaches its midpoint. Consider “5-(2-(5-(3,5-Dibromo)benzyloxy-1-(3,5-bis(trifluoromethyl)phenoxyacetyl)indolinyl)methylthioacetamido)benzene-1,3-dicarboxylic Acid [Example 45]”, for which the concentration for half-maximal inhibition (IC50) on cPLA2 [1] (setting [3]) was found to be 0.37 µM; on cPLA2 [2] (setting [4]), 5 µM.
The like results for `CNC(=O)c1cc(NC(=O)CSCC2Cc3cc(OCc4ccccc4)ccc3N2C(=O)COc2cc(C(F)(F)F)cc(C(F)(F)F)c2)cc(C(=O)O)c1` (stereo not drawn) [Example 43] were, in that order, 7.1 µM and 21 µM.
On cPLA2 [1], `O=C(O)c1ccccc1OCc1cc2cc(OCc3ccccc3)ccc2n1C(=O)OCc1ccccc1` [Example 1, 2-(2-(1-Phenylmethoxycarbonyl-5-phenylmethoxy)indolyl)methoxybenzoic Acid] returned an IC50 of 47 µM.
Regarding `O=C(O)c1cc(NC(=O)C2Cc3ccccc3N2Cc2ccc(C(F)(F)F)cc2C(F)(F)F)cc(C(=O)O)c1` (stereo not drawn) [Example 83], the IC50 on cPLA2 [1] (setting [3]) and at cPLA2 [2] (setting [4]) was over 50 µM in each case.
With `O=C(CSCC1Cc2cc(OCc3ccccc3)ccc2N1Cc1ccc(C(F)(F)F)cc1C(F)(F)F)Nc1cccc(C(=O)O)c1` (stereo not drawn) [Example 74], the half-inhibitory concentration (IC50) is 1.1 µM at cPLA2 [1] (setting [3]) and 5 µM at cPLA2 [2] (setting [4]).
Regarding `CCn1c(CSCC(=O)Nc2cc(C(=O)O)ccc2OC)c(C(=O)COc2ccc(C(C)(C)CC)cc2C(C)(C)CC)c2cc(OCc3ccccc3)ccc21` [Example 13], the IC50 amounted to 0.5 µM against cPLA2 [1] and 12 µM against cPLA2 [2].
In the case of `O=C(O)c1ccc(CN2c3ccc(OCc4ccccc4)cc3CC2COCc2ccc3ccccc3c2)cc1` (stereo not drawn) [Example 81], the values for the 50% inhibitory concentration (IC50) at cPLA2 [1] (setting [3]) and on cPLA2 [2] (setting [4]) were 3.2 µM and 15 µM, respectively.
For the molecule `O=C(O)c1ccc(CN2c3ccc(OCc4ccccc4)cc3CC2COCc2ccc(C(F)(F)F)cc2C(F)(F)F)cc1` (stereo not drawn) [Example 80, 4-(1-(5-Benzyloxy-2-(bis-2,4-trifluoromethyl)benzyloxymethyl)indolinyl)methylbenzoic Acid], the concentration for half-maximal inhibition (IC50) on cPLA2 [2] (setting [4]) worked out at 16 µM.
As to `CCC(C)(C)c1ccc(OCC(=O)N2c3ccc(OCc4ccccc4)cc3CC2CSc2ccccc2C(=O)NC)c(C(C)(C)CC)c1` (stereo not drawn) [Example 68], the IC50 at cPLA2 [1] (setting [3]) and on cPLA2 [2] (setting [4]) was over 50 µM each time.
For the molecule “3-(2-(-5-Benzyloxy-1-(2,4-bis(1,1-dimethy)propyl)phenoxyacetyl)indolinyl)methylthioacetamido-4-methylbenzoic Acid [Example 18]”, the 50% inhibitory concentration (IC50) on cPLA2 [1] (setting [3]) was determined as 0.28 µM; on cPLA2 [2] (setting [4]), 10 µM.
Consider `O=C(O)c1cc(NC(=O)c2cc3cc(OCc4ccccc4)ccc3n2Cc2ccc3ccccc3c2)cc(C(=O)O)c1` [Example 7], for which the IC50 against cPLA2 [1] was found to be 2.1 µM; at cPLA2 [2], 15 µM.
As to `COc1ccc(COc2ccc3c(c2)CC(CNC(=O)Nc2cc(C(=O)O)cc(C(=O)O)c2)N3Cc2ccc(C(F)(F)F)cc2C(F)(F)F)cc1` (stereo not drawn) [Example 86], at cPLA2 [2] (setting [4]), the 50% inhibitory concentration (IC50) worked out at 17 µM.
On the same count and under the same terms, the value for `O=C(CSCC1Cc2cc(OCc3ccccc3)ccc2N1CCc1ccncc1)Nc1cccc(C(=O)O)c1` (stereo not drawn) [Example 72] was over 64 µM.
Regarding `CC(O)c1cc(NC(=O)CSCC2Cc3cc(OCc4ccccc4)ccc3N2C(=O)COc2cc(C(F)(F)F)cc(C(F)(F)F)c2)cc(C(=O)O)c1` (stereo not drawn) [Example 42], the 50% inhibitory concentration (IC50) at cPLA2 [1] (setting [3]) came out at 7.8 µM; on cPLA2 [2] (setting [4]) it was 14 µM.
Turning to `O=C(NS(=O)(=O)c1ccccc1)C1Cc2ccccc2N1Cc1ccc(C(F)(F)F)cc1C(F)(F)F` (stereo not drawn) [Example 85], the results for the IC50 on cPLA2 [1] (setting [3]) and at cPLA2 [2] (setting [4]) were 21 µM and over 50 µM, respectively.
The like results for “3-(2-(5-Benzyloxy-1-tert-butoxycarbonyl)indolinyl)methylsulfonylacetamidobenzoic Acid [Example 64]” were, in that order, 17.6 µM and over 64 µM.
Taken in the same sequence, the figures for `O=C(CSCC1Cc2cc(OCc3ccccc3)ccc2N1C(=O)COc1ccc(C2C=CCC2)cc1C1C=CCC1)Nc1cccc(C(=O)O)c1` (stereo not drawn) [Example 58] were 0.56 µM and 4 µM.
Take “5-(2-(-5-Benzyloxy-1-(3,5-bis(trifluoromethyl)phenoxyacetyl)indolinyl)methylthioacetamido)benzene-1,3-dicarboxylic Acid [Example 38]”: the IC50 on cPLA2 [1] (setting [3]) is 6.9 µM; on cPLA2 [2] (setting [4]), over 50 µM.
Taken in the same sequence, the figures for `O=C(CSCC1Cc2cc(OCc3ccccc3)ccc2N1Cc1ccc2ccccc2c1)Nc1cccc(C(=O)O)c1` (stereo not drawn) [Example 73, 3-(2-(5-Benzyloxy-1-(2-naphthyl)methy)indolinyl)methylthioacetamidobenzoic Acid] were 1.9 µM and 6 µM.
Taken in the same sequence, the figures for “3-(N-(2-(-5-Benzyloxy-1-(2,4-bis(1,1-dimethy)propyl)phenoxyacetyl)indolinyl)methylthioethyl)aminobenzoic Acid [Example 69]” were 19.4 µM and 6 µM.
Take `CCC(C)(C)c1ccc(OCC(=O)N2c3ccc(OCc4ccccc4)cc3CC2CSCC(=O)O)c(C(C)(C)CC)c1` (stereo not drawn) [Example 66]: the concentration for half-maximal inhibition (IC50) was 2.3 µM at cPLA2 [1] (setting [3]) and 6 µM at cPLA2 [2] (setting [4]).
For “5-(2-(-5-Hydroxy-1-(3,5-bis(trifluoromethyl)phenoxyacetyl)indolinyl)methylthioacetamido)benzene-1,3-dicarboxylic Acid [Example 44]”, the IC50 on cPLA2 [1] (setting [3]) was 27 µM; on cPLA2 [2] (setting [4]), over 30 µM.
As to `O=C(O)c1ccc(OCc2cc3cc(OCc4ccccc4)ccc3n2C(=O)OCc2ccccc2)cc1` [Example 2, 4-(2-(1-Phenylmethoxycarbonyl-5-phenylmethoxy)indolyl)methoxybenzoic Acid], at cPLA2 [1], it took 6 µM to reach half-maximal inhibition (IC50).
For `CS(=O)(=O)NC(=O)C1Cc2ccccc2N1Cc1ccc(C(F)(F)F)cc1C(F)(F)F` (stereo not drawn) [Example 84, N-Methylsulfonyl-2-(1-(2,4-bis(trifluoromethyl)benzyl)indolinyl)carboxamide], the IC50 on cPLA2 [1] (setting [3]) was 23 µM; at cPLA2 [2] (setting [4]), over 50 µM.
Taken in the same sequence, the figures for `CC(=O)c1cc(NC(=O)CSCC2Cc3cc(OCc4ccccc4)ccc3N2C(=O)COc2cc(C(F)(F)F)cc(C(F)(F)F)c2)cc(C(=O)O)c1` (stereo not drawn) [Example 40] were 6.2 µM and 11 µM.
Consider `CC(C)(c1ccccc1)c1ccc(OCC(=O)N2c3ccc(OCc4ccccc4)cc3CC2CSCC(=O)Nc2cccc(C(=O)O)c2)c(C(C)(C)c2ccccc2)c1` (stereo not drawn) [Example 56], for which the IC50 at cPLA2 [1] (setting [3]) came out at 0.47 µM; on cPLA2 [2] (setting [4]), 5 µM.
On to `COc1ccc(C(=O)O)cc1NC(=O)CSCC1Cc2cc(OCc3ccccc3)ccc2N1Cc1ccc(C(F)(F)F)cc1C(F)(F)F` (stereo not drawn) [Example 75], for which the concentration for half-maximal inhibition (IC50) turned out to be 7 µM on cPLA2 [1] (setting [3]) and 6.2 µM on cPLA2 [2] (setting [4]).
`CCC(C)(C)c1ccc(OCC(=O)c2c(CSCC(=O)Nc3cc(C(=O)O)ccc3OC)n(C)c3ccc(OC)cc23)c(C(C)(C)CC)c1` [Example 12, 3-(2-(3-(2,4-bis(1,1-Dimethypropyl)phenoxyacetyl)-5-methoxy-1-methyl)indolyl)methylthioacetamido-4-methoxybenzoic Acid]: the IC50 was 4 µM at cPLA2 [1] and 10 µM against cPLA2 [2].
Regarding `COc1ccc(C(=O)O)cc1NC(=O)CSCC1Cc2cc(OCc3ccccc3)ccc2N1C(=O)COc1ccc2ccccc2c1` (stereo not drawn) [Example 59, 3-(2-(5-Benzyloxy-1-(2-naphthoxyaceiyl)indolinyl)methylthioacetamido)4-methoxybenzoic Acid], the IC50 was 8.7 µM at cPLA2 [1] (setting [3]) and over 30 µM at cPLA2 [2] (setting [4]).
Taken in the same sequence, the figures for “5-(2-(-5-Benzyloxy-1-(3,5-bis(trifluoromethyl)phenoxyacetyl)indolinyl)methylthioacetamido)-3-hydroxymethylbenzoic Acid [Example 41]” were 2.2 µM and 22 µM.
For the molecule `O=C(O)c1cccc(OCc2cc3cc(OCc4ccccc4)ccc3n2C(=O)OCc2ccccc2)c1` [Example 3, 3-(2-(1-Phenylmethoxycarbonyl-5-phenylmethoxy)indolyl)methoxybenzoic Acid], the IC50 on cPLA2 [1] turned out to be 6.5 µM; against cPLA2 [2], 14 µM.
Turning to `C=CCN(C(=O)CSCC1Cc2cc(OCc3ccccc3)ccc2N1C(=O)COc1ccc(C(C)(C)CC)cc1C(C)(C)CC)c1cc(C(=O)O)ccc1OC` (stereo not drawn) [Example 71], the values for the IC50 on cPLA2 [1] (setting [3]) and on cPLA2 [2] (setting [4]) were 5.9 µM and 12 µM, respectively.
As for `O=C(O)c1ccccc1SCC1Cc2cc(OCc3ccccc3)ccc2N1Cc1ccc(Cc2ccccc2)cc1` (stereo not drawn) [Example 78], the IC50 on cPLA2 [2] (setting [4]) was found to be 3 µM.
